# Measurements from US11285139B2, “Treatment of CNS conditions” (Takeda Pharmaceutical Company Limited, priority 2017, dated 2022).
# How the values were obtained:
# Assay type in all cases: in vivo
# [1] = single-rising dose (SRD) first-in-human study, safety evaluation
# Protocol: (§1) Four clinical studies including a single-rising dose (SRD) first-in-human study, a single-dose positron emission tomography (PET) target occupancy study, a multiple-rising dose (MRD) study, and a single-dose relative bioavailability (BA) and food-effect study were conducted.
# [2] = biological target: T1, CH24H (Homo sapiens, UniProt Q9Y6A2); assay: single-dose positron emission tomography (PET) target occupancy study
# T1 construct: single-dose positron emission tomography (PET) target occupancy study; from tissue; host or cells: brain of study participants, in vivo (brain is inferred from the statement that CH24H is expressed in neurons)
# Protocol: as §1
# The pharmacokinetics (PK) and pharmacodynamics (PD) of (4-benzyl-4-hydroxypiperidin-1-yl) (2,4′-bipyridin-3-yl)methanone were characterized in these studies.
# [3] = test system: Scn1a+/−mice; assay: spontaneous seizures in Scn1a+/− mouse model of Dravet syndrome; conditions: chow containing 0.02% (w/w) for 2 weeks, started at 17-18 days after birth; control group 23.9%
# Protocol: The following Example provides data from a heterozygous deletion of a Scn1a mouse model (Scn1a+/−mice) of Dravet syndrome, a developmental epileptic encephalopathy subtype. Myoclonic and generalized tonic-clonic seizures are observed, which correlate to symptoms in humans. Therefore, (4-benzyl-4-hydroxypiperidin-1-yl) (2,4′-bipyridin-3-yl)methanone was tested in Scn1a+/−mice for its potential effects on seizure. At 17-18 days after birth, mice were weaned and started on treatment either with control chow or chow containing (4-benzyl-4-hydroxypiperidin-1-yl) (2,4′-bipyridin-3-yl)methanone 0.02% (w/w) for 2 weeks. Spontaneous seizures were continuously monitored. The seizure free rate during the study period for the control group was 23.9%.
# T1 sequence (Q9Y6A2 whole entry): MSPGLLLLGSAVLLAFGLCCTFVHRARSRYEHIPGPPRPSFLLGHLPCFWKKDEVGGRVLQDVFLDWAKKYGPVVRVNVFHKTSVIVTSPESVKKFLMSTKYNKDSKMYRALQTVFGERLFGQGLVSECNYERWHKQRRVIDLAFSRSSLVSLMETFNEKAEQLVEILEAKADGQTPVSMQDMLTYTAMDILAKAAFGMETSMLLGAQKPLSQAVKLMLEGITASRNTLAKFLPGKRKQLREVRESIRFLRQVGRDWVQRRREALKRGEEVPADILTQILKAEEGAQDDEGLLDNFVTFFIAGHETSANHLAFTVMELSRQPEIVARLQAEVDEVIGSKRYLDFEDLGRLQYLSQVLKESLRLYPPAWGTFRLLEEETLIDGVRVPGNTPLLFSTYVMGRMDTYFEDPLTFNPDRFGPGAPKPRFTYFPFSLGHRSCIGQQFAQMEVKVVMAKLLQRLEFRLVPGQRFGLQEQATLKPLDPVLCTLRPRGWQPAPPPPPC
smiles,measurement,setting,value
"O=C(c1cccnc1-c1ccncc1)N1CCC(O)(Cc2ccccc2)CC1 [(4-benzyl-4-hydroxypiperidin-1-yl) (2,4′-bipyridin-3-yl)methanone]",serious pretreatment events or post treatment adverse events,"[1]; all cohorts, 15-1350 mg single oral dose",No serious pretreatment events or post treatment adverse events were reported
same,safety and tolerability,"[1]; doses up to 1350 mg single dose, healthy male and female subjects",generally safe and well tolerated
same,plasma 24HC concentrations,[2],dose-dependent decreases
same,PET occupancy measurements,[2]; correlated with circulating levels of 24HC,dose- and time-dependent
same,seizure free rate during the study period,[3],91.7%
